# From patent publication US6399561B1, “Methods and compositions for bleaching a dye in solution” (Novozymes A/S, priority 1998, dated 2002)
# Tested on: Recombinant Myceliophthora thermophila laccase (rMtL)
# Assay: Bleaching of methyl orange using rMtL and NOH-type enhancing agents (initial bleaching rate)
# Format: biochemical
# Settings: pH 4; rMtL solution diluted 1:300; 0.2 mM mediator; 30° C.; large negative numbers = best performance
# Procedure: (§1) Britton-Robinson buffer is composed of:
# (§2) Methyl orange (Merck, Germany)
# (§3) Reactions were started by addition of enzyme. Absorbance at 464 nm was followed for 3 minutes (readings every 5 seconds) on a Cobas Fara at 30° C. Initial bleaching rates were determined from the first linear part of the progress curves.
# (§4) The N—OH compounds listed above were tested as laccase mediators in bleaching of methyl orange with three recombinant laccases (rPpL, rMtL and rCcL) at various pH values. Large negative numbers represent the best performance.
row,Compound,Initial changes per minute in A464 nm of methyl orange using rMtL [per minute]
1,"CCOc1ccc(N=[N+]([O-])c2ccc(OCC)cc2)cc1 [p,p′-azoxydiphenetole, p,p′-Azoxydiphenetole]",0.019
2,"O=C(c1ccccc1)N(O)c1ccccc1 [N-benzoyl-N-phenylhydroxylamine, N-Benzoyl-N-phenylhydroxylamine]",−0.269
3,[O-][n+]1ccc2ccccc2c1 [Iso-quinoline-N-oxide],−0.017
4,ON=C(c1ccccn1)c1ccccn1 [di-2-pyridylketone oxime],−0.026

# Same assay, conditions: pH 5; rMtL solution diluted 1:300; 0.2 mM mediator; 30° C.; large negative numbers = best performance
row,Compound,Initial changes per minute in A464 nm of methyl orange using rMtL [per minute]
1,"CCOc1ccc(N=[N+]([O-])c2ccc(OCC)cc2)cc1 [p,p′-azoxydiphenetole, p,p′-Azoxydiphenetole]",0.086
2,"O=C(c1ccccc1)N(O)c1ccccc1 [N-benzoyl-N-phenylhydroxylamine, N-Benzoyl-N-phenylhydroxylamine]",−0.296
3,[O-][n+]1ccc2ccccc2c1 [Iso-quinoline-N-oxide],−0.010
4,ON=C(c1ccccn1)c1ccccn1 [di-2-pyridylketone oxime],−0.010

# Same assay, conditions: pH 6; rMtL solution diluted 1:300; 0.2 mM mediator; 30° C.; large negative numbers = best performance
row,Compound,Initial changes per minute in A464 nm of methyl orange using rMtL [per minute]
1,"CCOc1ccc(N=[N+]([O-])c2ccc(OCC)cc2)cc1 [p,p′-azoxydiphenetole, p,p′-Azoxydiphenetole]",0.012
2,"O=C(c1ccccc1)N(O)c1ccccc1 [N-benzoyl-N-phenylhydroxylamine, N-Benzoyl-N-phenylhydroxylamine]",−0.082
3,[O-][n+]1ccc2ccccc2c1 [Iso-quinoline-N-oxide],−0.004
4,ON=C(c1ccccn1)c1ccccn1 [di-2-pyridylketone oxime],−0.001

# Same assay, conditions: pH 7; rMtL solution diluted 1:300; 0.2 mM mediator; 30° C.; large negative numbers = best performance
row,Compound,Initial changes per minute in A464 nm of methyl orange using rMtL [per minute]
1,"CCOc1ccc(N=[N+]([O-])c2ccc(OCC)cc2)cc1 [p,p′-azoxydiphenetole, p,p′-Azoxydiphenetole]",0.020
2,"O=C(c1ccccc1)N(O)c1ccccc1 [N-benzoyl-N-phenylhydroxylamine, N-Benzoyl-N-phenylhydroxylamine]",−0.012
3,[O-][n+]1ccc2ccccc2c1 [Iso-quinoline-N-oxide],0.000
4,ON=C(c1ccccn1)c1ccccn1 [di-2-pyridylketone oxime],0.001

# Target: T1, Polyporus pinsitus laccase (Trametes villosa, UniProt Q99044)
# T1 construct: made in house
# T1 sequence (Q99044 22-520): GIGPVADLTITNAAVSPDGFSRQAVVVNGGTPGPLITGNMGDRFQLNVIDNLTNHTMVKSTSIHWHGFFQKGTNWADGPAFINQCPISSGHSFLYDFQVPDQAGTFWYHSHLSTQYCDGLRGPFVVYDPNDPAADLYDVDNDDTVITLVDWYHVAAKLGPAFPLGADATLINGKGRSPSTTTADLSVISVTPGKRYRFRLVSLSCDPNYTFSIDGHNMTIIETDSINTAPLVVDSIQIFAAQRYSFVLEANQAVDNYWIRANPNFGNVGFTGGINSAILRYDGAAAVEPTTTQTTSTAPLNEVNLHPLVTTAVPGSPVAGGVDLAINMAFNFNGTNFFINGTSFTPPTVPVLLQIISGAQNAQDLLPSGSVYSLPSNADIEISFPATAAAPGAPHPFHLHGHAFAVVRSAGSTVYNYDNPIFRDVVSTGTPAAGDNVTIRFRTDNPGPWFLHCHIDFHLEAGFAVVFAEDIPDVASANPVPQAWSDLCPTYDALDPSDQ
# Assay: Bleaching of methyl orange using rPpL and NOH-type enhancing agents (initial bleaching rate)
# Format: biochemical
# Settings: pH 4; rPpL solution diluted 1:200; 0.2 mM mediator; 30° C.; large negative numbers = best performance
# Procedure: as §1, §2, §3, §4
row,Compound,Initial changes per minute in A464 nm of methyl orange using rPpL [per minute]
1,"CCOc1ccc(N=[N+]([O-])c2ccc(OCC)cc2)cc1 [p,p′-azoxydiphenetole, p,p′-Azoxydiphenetole]",0.121
2,"O=C(c1ccccc1)N(O)c1ccccc1 [N-benzoyl-N-phenylhydroxylamine, N-Benzoyl-N-phenylhydroxylamine]",−0.732
3,[O-][n+]1ccc2ccccc2c1 [Iso-quinoline-N-oxide],−0.074
4,ON=C(c1ccccn1)c1ccccn1 [di-2-pyridylketone oxime],−0.124

# Same assay, conditions: pH 5; rPpL solution diluted 1:200; 0.2 mM mediator; 30° C.; large negative numbers = best performance
row,Compound,Initial changes per minute in A464 nm of methyl orange using rPpL [per minute]
1,"CCOc1ccc(N=[N+]([O-])c2ccc(OCC)cc2)cc1 [p,p′-azoxydiphenetole, p,p′-Azoxydiphenetole]",0.013
2,"O=C(c1ccccc1)N(O)c1ccccc1 [N-benzoyl-N-phenylhydroxylamine, N-Benzoyl-N-phenylhydroxylamine]",−1.402
3,[O-][n+]1ccc2ccccc2c1 [Iso-quinoline-N-oxide],−0.037
4,ON=C(c1ccccn1)c1ccccn1 [di-2-pyridylketone oxime],−0.107

# Same assay, conditions: pH 6; rPpL solution diluted 1:200; 0.2 mM mediator; 30° C.; large negative numbers = best performance
row,Compound,Initial changes per minute in A464 nm of methyl orange using rPpL [per minute]
1,"CCOc1ccc(N=[N+]([O-])c2ccc(OCC)cc2)cc1 [p,p′-azoxydiphenetole, p,p′-Azoxydiphenetole]",0.017
2,"O=C(c1ccccc1)N(O)c1ccccc1 [N-benzoyl-N-phenylhydroxylamine, N-Benzoyl-N-phenylhydroxylamine]",−0.420
3,[O-][n+]1ccc2ccccc2c1 [Iso-quinoline-N-oxide],−0.014
4,ON=C(c1ccccn1)c1ccccn1 [di-2-pyridylketone oxime],−0.053

# Same assay, conditions: pH 7; rPpL solution diluted 1:200; 0.2 mM mediator; 30° C.; large negative numbers = best performance
row,Compound,Initial changes per minute in A464 nm of methyl orange using rPpL [per minute]
1,"CCOc1ccc(N=[N+]([O-])c2ccc(OCC)cc2)cc1 [p,p′-azoxydiphenetole, p,p′-Azoxydiphenetole]",0.018
2,"O=C(c1ccccc1)N(O)c1ccccc1 [N-benzoyl-N-phenylhydroxylamine, N-Benzoyl-N-phenylhydroxylamine]",−0.012
3,[O-][n+]1ccc2ccccc2c1 [Iso-quinoline-N-oxide],−0.002
4,ON=C(c1ccccn1)c1ccccn1 [di-2-pyridylketone oxime],−0.005

# Tested on: Recombinant Coprinus cinereus laccase (rCcL)
# Assay: Bleaching of methyl orange using rCcL and NOH-type enhancing agents (initial bleaching rate)
# Format: biochemical
# Settings: pH 4; rCcL solution diluted 1:200; 0.2 mM mediator; 30° C.; large negative numbers = best performance
# Procedure: as §1, §2, §3, §4
row,Compound,Initial changes per minute in A464 nm of methyl orange using rCcL [per minute]
1,"CCOc1ccc(N=[N+]([O-])c2ccc(OCC)cc2)cc1 [p,p′-azoxydiphenetole, p,p′-Azoxydiphenetole]",0.116
2,"O=C(c1ccccc1)N(O)c1ccccc1 [N-benzoyl-N-phenylhydroxylamine, N-Benzoyl-N-phenylhydroxylamine]",−0.163
3,[O-][n+]1ccc2ccccc2c1 [Iso-quinoline-N-oxide],−0.002
4,ON=C(c1ccccn1)c1ccccn1 [di-2-pyridylketone oxime],−0.004

# Same assay, conditions: pH 5; rCcL solution diluted 1:200; 0.2 mM mediator; 30° C.; large negative numbers = best performance
row,Compound,Initial changes per minute in A464 nm of methyl orange using rCcL [per minute]
1,"CCOc1ccc(N=[N+]([O-])c2ccc(OCC)cc2)cc1 [p,p′-azoxydiphenetole, p,p′-Azoxydiphenetole]",0.196
2,"O=C(c1ccccc1)N(O)c1ccccc1 [N-benzoyl-N-phenylhydroxylamine, N-Benzoyl-N-phenylhydroxylamine]",−0.247
3,[O-][n+]1ccc2ccccc2c1 [Iso-quinoline-N-oxide],−0.005
4,ON=C(c1ccccn1)c1ccccn1 [di-2-pyridylketone oxime],−0.006

# Same assay, conditions: pH 6; rCcL solution diluted 1:200; 0.2 mM mediator; 30° C.; large negative numbers = best performance
row,Compound,Initial changes per minute in A464 nm of methyl orange using rCcL [per minute]
1,"CCOc1ccc(N=[N+]([O-])c2ccc(OCC)cc2)cc1 [p,p′-azoxydiphenetole, p,p′-Azoxydiphenetole]",0.002
2,"O=C(c1ccccc1)N(O)c1ccccc1 [N-benzoyl-N-phenylhydroxylamine, N-Benzoyl-N-phenylhydroxylamine]",−0.529
3,[O-][n+]1ccc2ccccc2c1 [Iso-quinoline-N-oxide],−0.008
4,ON=C(c1ccccn1)c1ccccn1 [di-2-pyridylketone oxime],−0.008

# Same assay, conditions: pH 7; rCcL solution diluted 1:200; 0.2 mM mediator; 30° C.; large negative numbers = best performance
row,Compound,Initial changes per minute in A464 nm of methyl orange using rCcL [per minute]
1,"CCOc1ccc(N=[N+]([O-])c2ccc(OCC)cc2)cc1 [p,p′-azoxydiphenetole, p,p′-Azoxydiphenetole]",0.008
2,"O=C(c1ccccc1)N(O)c1ccccc1 [N-benzoyl-N-phenylhydroxylamine, N-Benzoyl-N-phenylhydroxylamine]",−0.592
3,[O-][n+]1ccc2ccccc2c1 [Iso-quinoline-N-oxide],−0.010
4,ON=C(c1ccccn1)c1ccccn1 [di-2-pyridylketone oxime],−0.006

# Same assay, conditions: pH 8; rCcL solution diluted 1:200; 0.2 mM mediator; 30° C.; large negative numbers = best performance
row,Compound,Initial changes per minute in A464 nm of methyl orange using rCcL [per minute]
1,"CCOc1ccc(N=[N+]([O-])c2ccc(OCC)cc2)cc1 [p,p′-azoxydiphenetole, p,p′-Azoxydiphenetole]",0.019
2,"O=C(c1ccccc1)N(O)c1ccccc1 [N-benzoyl-N-phenylhydroxylamine, N-Benzoyl-N-phenylhydroxylamine]",−0.124
3,[O-][n+]1ccc2ccccc2c1 [Iso-quinoline-N-oxide],−0.004
4,ON=C(c1ccccn1)c1ccccn1 [di-2-pyridylketone oxime],−0.001
